Experimental data: patent publication US8470822B2, “Folate mimetics and folate-receptor binding conjugates thereof” (Purdue Research Foundation, priority 2001, dated 2013)

Test system: folate-receptor-positive human KB cell tumor xenografts
Test: Biodistribution of 111In radiotracer in KB tumor-bearing athymic mice after intravenous administration
Format: in vivo
Conditions: for Percentage of Injected 111In Dose Per Organ (Tissue): Muscle: muscle assumed 42% of body mass
Protocol: Our primary animal model for evaluation of the biodistribution and pharmacokinetics of folate-receptor-targeted radiopharmaceuticals has been athymic mice bearing subcutaneously implanted folate-receptor-positive human KB cell tumors. […] After 3 weeks on folate-free diet, mouse serum folate levels drop to 25±7 nM from the initial 720±260 nM serum folate level when the animals are fed normal rodent chow. This dietary intervention is believed to be a reasonable manipulation of the animal model, since the mice would have serum folate levels only slightly higher than the folate concentration of normal human serum. Thus, in these mouse biodistribution studies the radiotracer is competing for tumor folate receptors with physiologically relevant concentrations of endogenous unlabeled serum folate.
The substantial retention of ^111In in the kidneys is fully consistent with the binding of ^111In-CYK4-013 to tissue folate receptors, since the renal proximal tubule is a known normal tissue site of folate receptor expression. […] The behavior of the ^111In-CYK4-013 radiopharmaceutical in this animal model (Table 2) is very similar to that observed for ^111In-DTPA-Folate (Table 3).
Results. Similar to ^111In-DTPA-Folate, ^111In-CYK4-013 selectively localized in the folate-receptor-positive tumor xenografts, and afforded prolonged tumor retention of ^111In (5.4±0.8; 5.5±1.1; and 3.6±0.6% ID/g at 1 hour, 4 hours, and 24 hours, respectively) (Table 2). […] Blockable binding was also observed in the kidneys, where the folate receptor occurs in the proximal tubules.

[1] = 4 Hours, Blocked: co-injection of folic acid dihydrate 4.1 ± 0.4 mg/kg
[2] = 24 Hours after intravenous administration

Nc1nc(O)c2nc(CNc3ccc(C(=O)NCCOCCOCCNC(=O)CN(CCN(CCN(CC(=O)O)CC(=O)O)CC(=O)O)CC(=O)O)cc3)cnc2n1.[111In+3] [^111In-CYK4-013]
Percentage of Injected 111In Dose Per Gram (Tissue Wet Mass): Blood [1]: 0.016 ± 0.010 % ID/g | Percentage of Injected 111In Dose Per Gram (Tissue Wet Mass): Heart [1]: 0.015 ± 0.010 % ID/g | Percentage of Injected 111In Dose Per Gram (Tissue Wet Mass): Kidney (one) [1]: 0.90 ± 0.59 % ID/g | Percentage of Injected 111In Dose Per Gram (Tissue Wet Mass): Liver & Gall Bladder [1]: 0.051 ± 0.029 % ID/g | Percentage of Injected 111In Dose Per Gram (Tissue Wet Mass): Lungs [1]: 0.041 ± 0.027 % ID/g | Percentage of Injected 111In Dose Per Gram (Tissue Wet Mass): Muscle [1]: 0.080 ± 0.057 % ID/g | Percentage of Injected 111In Dose Per Gram (Tissue Wet Mass): Spleen [1]: 0.028 ± 0.017 % ID/g | Percentage of Injected 111In Dose Per Gram (Tissue Wet Mass): Stomach, Intestines & Contents [1]: 1.7 ± 1.1 % ID/g | Percentage of Injected 111In Dose Per Organ (Tissue): Blood [1]: 0.025 ± 0.015 Percentage of Injected 111In D | Percentage of Injected 111In Dose Per Organ (Tissue): Heart [1]: 0.0023 ± 0.0016 Percentage of Injected 111In D | Percentage of Injected 111In Dose Per Organ (Tissue): Kidney (one) [1]: 0.23 ± 0.15 Percentage of Injected 111In D | Percentage of Injected 111In Dose Per Organ (Tissue): Liver & Gall Bladder [1]: 0.074 ± 0.044 Percentage of Injected 111In D | Percentage of Injected 111In Dose Per Organ (Tissue): Lungs [1]: 0.0082 ± 0.0051 Percentage of Injected 111In D | Percentage of Injected 111In Dose Per Organ (Tissue): Spleen [1]: 0.0049 ± 0.0029 Percentage of Injected 111In D | Percentage of Injected 111In Dose Per Organ (Tissue): Stomach, Intestines & Contents [1]: 4.6 ± 2.8 Percentage of Injected 111In D | Percentage of Injected 111In Dose Per Organ (Tissue): Tumor [1]: 0.0094 ± 0.0061 Percentage of Injected 111In D | Tumor/blood ratio [1]: 7.5 ± 2.4 | Tumor/kidney ratio [1]: 0.12 ± 0.03 | Tumor/liver ratio [1]: 2.2 ± 0.6 | Tumor/muscle ratio [1]: 1.5 ± 0.7 | Percentage of Injected 111In Dose Per Gram (Tissue Wet Mass): Tumor (4 Hours, Blocked: co-injection of folic acid dihydrate 4.1 ± 0.4 mg/kg, 0.4 mg/kg): 0.12±0.07 % ID/g | Percentage of Injected 111In Dose Per Organ (Tissue): Muscle [1]: 1.0 ± 0.7 Percentage of Injected 111In D | Percentage of Injected 111In Dose Per Gram (Tissue Wet Mass): Blood [2]: 0.035 ± 0.002 % ID/g | Percentage of Injected 111In Dose Per Gram (Tissue Wet Mass): Heart [2]: 1.2 ± 0.5 % ID/g | Percentage of Injected 111In Dose Per Gram (Tissue Wet Mass): Kidney (one) [2]: 105 ± 7 % ID/g | Percentage of Injected 111In Dose Per Gram (Tissue Wet Mass): Liver & Gall Bladder [2]: 1.2 ± 0.6 % ID/g | Percentage of Injected 111In Dose Per Gram (Tissue Wet Mass): Lungs [2]: 0.72 ± 0.21 % ID/g | Percentage of Injected 111In Dose Per Gram (Tissue Wet Mass): Muscle [2]: 1.9 ± 0.6 % ID/g | Percentage of Injected 111In Dose Per Gram (Tissue Wet Mass): Spleen [2]: 0.27 ± 0.08 % ID/g | Percentage of Injected 111In Dose Per Gram (Tissue Wet Mass): Stomach, Intestines & Contents [2]: 1.2 ± 0.2 % ID/g | Percentage of Injected 111In Dose Per Gram (Tissue Wet Mass): Tumor [2]: 3.6±0.6 % ID/g | Percentage of Injected 111In Dose Per Organ (Tissue): Blood [2]: 0.055 ± 0.002 Percentage of Injected 111In D | Percentage of Injected 111In Dose Per Organ (Tissue): Heart [2]: 0.18 ± 0.06 Percentage of Injected 111In D | Percentage of Injected 111In Dose Per Organ (Tissue): Kidney (one) [2]: 26.8 ± 2.7 Percentage of Injected 111In D | Percentage of Injected 111In Dose Per Organ (Tissue): Liver & Gall Bladder [2]: 1.7 ± 0.9 Percentage of Injected 111In D | Percentage of Injected 111In Dose Per Organ (Tissue): Lungs [2]: 0.34 ± 0.03 Percentage of Injected 111In D | Percentage of Injected 111In Dose Per Organ (Tissue): Spleen [2]: 0.055 ± 0.017 Percentage of Injected 111In D | Percentage of Injected 111In Dose Per Organ (Tissue): Stomach, Intestines & Contents [2]: 3.3 ± 0.6 Percentage of Injected 111In D | Percentage of Injected 111In Dose Per Organ (Tissue): Tumor [2]: 0.42 ± 0.4 Percentage of Injected 111In D | Tumor/blood ratio [2]: 105 ± 20 | Tumor/kidney ratio [2]: 0.035 ± 0.008 | Tumor/liver ratio [2]: 3.7 ± 1.4 | Tumor/muscle ratio [2]: 2.0 ± 0.6 | Percentage of Injected 111In Dose Per Organ (Tissue): Muscle [2]: 23.1 ± 7.0 Percentage of Injected 111In D | primary whole-body clearance pathway (athymic mice, intravenous administration): Urinary excretion
